Values quoted from earlier work, collected in patent publication US20080089854A1, “Skin care compositions” (priority 2006, published 2008).

Assays:
[1] = topical application
[2] = animal studies

share of topically applied azelaic acid that is absorbed [1]: about 3.6%
Compound: O=C(O)CCCCCCCC(=O)O [azelaic acid]
adverse effects on fertility or reproduction [2]: no adverse effects
